In publication PMC7679387, “VZHE-039, a novel antisickling agent that prevents erythrocyte sickling under both hypoxic and anoxic conditions” (Scientific Reports, 2020):
Values joined by “and” are separate entries in the source; they are usually repeats but may differ in a detail not shown here. Equal values may be shown once.

Tests used:
CYP3A4 = target: T1, CYP3A4 (Homo sapiens, UniProt P08684); experiment: In vitro CYP inhibition, pooled human liver microsomes; format: in vitro ADME
T1 construct: 0.2–0.5 mg/mL pooled human liver microsomes; from tissue; host or cells: pooled human liver microsomes
T1 sequence (P08684 whole entry): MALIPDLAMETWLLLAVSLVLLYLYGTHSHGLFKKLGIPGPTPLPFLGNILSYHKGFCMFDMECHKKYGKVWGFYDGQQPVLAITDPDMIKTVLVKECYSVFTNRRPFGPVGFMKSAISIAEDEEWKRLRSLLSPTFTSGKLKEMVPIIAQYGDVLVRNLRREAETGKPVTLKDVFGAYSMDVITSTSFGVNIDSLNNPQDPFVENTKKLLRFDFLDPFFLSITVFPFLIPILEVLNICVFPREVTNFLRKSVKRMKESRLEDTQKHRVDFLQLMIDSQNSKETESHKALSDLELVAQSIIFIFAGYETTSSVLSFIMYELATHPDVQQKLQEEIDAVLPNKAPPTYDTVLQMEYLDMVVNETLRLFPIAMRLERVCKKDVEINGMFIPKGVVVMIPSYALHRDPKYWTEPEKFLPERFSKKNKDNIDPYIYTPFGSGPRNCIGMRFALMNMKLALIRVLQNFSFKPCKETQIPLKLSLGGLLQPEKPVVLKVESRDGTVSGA
Description: (§1) Next, we tested VZHE-039 at concentrations of 0.1 to 100 µM, considered to be biologically relevant unbound plasma concentrations, for possible CYP inhibition using pooled human liver microsomes and isozyme-specific probe substrates (CYP1A2, CYP2C8, CYP2C9, CYP2C19, CYP2D6, CYP3A4, CYP2B6)[55].
(§2) VZHE-039 was studied for its inhibitory potential of seven major drug metabolizing human cytochrome P450 (CYP) enzymes (CYP1A2, CYP2C8, CYP2C9, CYP2C19, CYP2D6, CYP3A4, CYP2B6) using pooled human liver microsomes as published previously[26],[55]. The probe substrates include tacrine (CYP1A2), amodiaquine (CYP2C8), tolbutamide (CYP2C9), mephenytoin (CYP2C19), dextromethorphan (CYP2D6), midazolam (CYP3A4), testosterone (CYP3A4), and bupropion (CYP2B6). […] Assay conditions were optimized for each human cytochrome P450 substrate. The optimized reaction mixtures (200 μL) contained a final concentration of 0.2–0.5 mg/mL pooled human liver microsomes, 2 mM NADPH in 100 mM potassium phosphate, pH 7.4 buffer with 5 mM MgCl2, and VZHE-039 concentration of 0.1 to 100 µM. The assays were performed in duplicate in 96-well plates at 37 °C for 10–60 min. The reaction was terminated with addition of methanol, followed by incubation at 4 °C for 10 min and centrifuged at 4 °C for 10 min. Effect of VZHE-039 on formation of the respective probe substrate metabolites (velnacrine, N‐desethylamodiaquine, 4-hydroxytolbutamide, 4′-hydroxymephenytoin, dextrophan, 1′-hydroxymidazolam, and 6β-hydroxtestosterone and hydroxybupropion) were determined using LC–MS/MS.

CYP2D6 = target: T2, CYP2D6 (Homo sapiens, UniProt P10635); experiment: as above; format: in vitro ADME; details: substrate Dextromethorphan
T2 construct: 0.2–0.5 mg/mL pooled human liver microsomes; from tissue; host or cells: pooled human liver microsomes
T2 sequence (P10635 whole entry): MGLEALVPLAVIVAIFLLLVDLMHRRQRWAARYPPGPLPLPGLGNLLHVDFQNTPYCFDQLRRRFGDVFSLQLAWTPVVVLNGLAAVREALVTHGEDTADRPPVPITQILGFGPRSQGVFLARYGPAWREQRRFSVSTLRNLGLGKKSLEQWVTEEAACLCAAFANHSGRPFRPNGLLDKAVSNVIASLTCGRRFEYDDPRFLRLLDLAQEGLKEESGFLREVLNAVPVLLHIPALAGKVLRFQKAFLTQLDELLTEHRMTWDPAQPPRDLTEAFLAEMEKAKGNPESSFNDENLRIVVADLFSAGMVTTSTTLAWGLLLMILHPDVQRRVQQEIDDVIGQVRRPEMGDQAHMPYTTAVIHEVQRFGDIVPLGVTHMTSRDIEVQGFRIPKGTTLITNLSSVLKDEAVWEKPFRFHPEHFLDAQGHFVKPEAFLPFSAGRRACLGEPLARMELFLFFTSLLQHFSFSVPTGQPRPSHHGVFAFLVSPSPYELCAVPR
Description: as §1, §2

CYP2C19 = target: T3, CYP2C19 (Homo sapiens, UniProt P33261); experiment: as above; format: in vitro ADME; details: substrate S-Mephentoin
T3 construct: 0.2–0.5 mg/mL pooled human liver microsomes; from tissue; host or cells: pooled human liver microsomes
T3 sequence (P33261 whole entry): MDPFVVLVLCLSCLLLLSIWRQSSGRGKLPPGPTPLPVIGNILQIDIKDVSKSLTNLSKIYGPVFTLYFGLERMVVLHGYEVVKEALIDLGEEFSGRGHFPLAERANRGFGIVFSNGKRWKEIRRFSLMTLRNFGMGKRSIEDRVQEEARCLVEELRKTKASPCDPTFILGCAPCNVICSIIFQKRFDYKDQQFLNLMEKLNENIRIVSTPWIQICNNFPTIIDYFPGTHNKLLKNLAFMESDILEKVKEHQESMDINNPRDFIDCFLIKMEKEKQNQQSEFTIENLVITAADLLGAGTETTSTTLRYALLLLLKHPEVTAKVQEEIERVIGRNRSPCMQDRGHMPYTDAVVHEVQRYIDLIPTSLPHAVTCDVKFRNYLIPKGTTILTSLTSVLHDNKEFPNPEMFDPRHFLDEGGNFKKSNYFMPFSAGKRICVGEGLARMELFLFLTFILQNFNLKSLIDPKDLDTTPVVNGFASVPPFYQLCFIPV
Description: as §1, §2

HbS = target: T4, HbS (Homo sapiens, UniProt P69905); experiment: Hb modification (HbS adduct formation) by cation-exchange HPLC of lysates from SS cells; format: cell-based; details: SS cells, 20% hematocrit, HPLC of hemolysates
T4 construct: whole blood suspensions from subjects with homozygous SCD (Hct of 20%); from tissue; host or cells: whole blood / red blood cells of patients with homozygous SS sickle cell disease; lysate for HPLC and OEC
T4 sequence (P69905 2-142): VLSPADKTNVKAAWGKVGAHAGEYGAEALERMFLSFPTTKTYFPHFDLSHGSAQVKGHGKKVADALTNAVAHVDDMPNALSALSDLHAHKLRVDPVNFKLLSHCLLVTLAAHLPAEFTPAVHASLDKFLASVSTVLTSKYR
T4 sequence (P68871 with tags, fused parts or gaps E7V partner): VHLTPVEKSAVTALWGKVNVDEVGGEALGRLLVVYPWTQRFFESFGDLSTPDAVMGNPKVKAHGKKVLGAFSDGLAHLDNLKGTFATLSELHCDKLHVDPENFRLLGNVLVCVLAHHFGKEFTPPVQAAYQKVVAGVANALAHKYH
Description: For our previously studied compounds (e.g., INN-312, TD-7, SAJ-310, INN-298) that incorporate methoxyPy substitution to vanillin analogs, we observed a significant increase in functional and biological activity as a result of increased protein interactions[31],[33],[35],[36]. We therefore expected similar effects for VZHE-039, which we tested by following VZHE-039 activity (measured by Hb adduct formation, P50-shift and RBC sickling inhibition) using SS blood. Briefly, we incubated 0.5, 1, and 2 mM concentrations of VZHE-039 with whole blood suspensions from subjects with homozygous SCD (Hct of 20%) under hypoxic conditions (2.5% O2/97.5% N2) at 37 °C for 2 h for expected peak adduct. Aliquot blood samples were drawn into a fixative (2% glutaraldehyde solution), and sickling was assessed by microscopy[31],[33],[35],[36]. Aliquot samples were also subjected to cation-exchange HPLC analyses to assess the degree of Hb modification to the high-affinity adduct form (Hb adduct formation), as well as standard O2 equilibrium curves (OEC) to assess P50-shifts using hemox analyzer[31],[33],[35],[36]. […] The improved potency of Voxelotor has been attributed to reduced binding stoichiometry, i.e. while Voxelotor binds Hb at a 1:1 ratio, VZHE-039 binds Hb at a 2:1 ratio. […] This observation, as will be discussed later is likely due to a meaningful contribution from the novel O2-independent antisickling activity as result of the strong contact with the αF-helix.
The effect of VZHE-039 on RBC sickling, Hb modification, and Hb oxygen equilibrium was studied utilizing samples from consented individuals with homozygous SCD following previous procedure. Briefly, blood suspended in Hemox buffer and supplemented with glucose and bovine serum albumin, to a final hematocrit of 20% were incubated under air in the absence or presence of 0.5 mM, 1 mM and 2 mM VZHE-039 at 37 °C for 1 h. This was followed by incubating the suspensions under hypoxic conditions (2.5% O2/97.5% N2) at 37 °C for 2 h. Aliquot samples were obtained and fixed with 2% glutaraldehyde solution without exposure to air, and then subjected to microscopic morphological analysis of bright field images (at × 40 magnification) of single layer cells on an Olympus BX40 microscope fitted with an Infinity 2 camera (Olympus), and the coupled Image Capture software. Leftover samples were washed in phosphate-buffer saline, and hemolyzed in hypotonic lysis buffer for subsequent Hb-modification and oxygen equilibrium analyses.
Finally, for the Hb adduct formation studies, the above clarified lysates were subjected to cation-exchange HPLC (Hitachi D-7000 Series, Hitachi Instruments, Inc., San Jose, CA), using a weak cation-exchange column (Poly CAT A: 30 mm × 4.6 mm, Poly LC, Inc., Columbia, MD). A commercial standard consisting of approximately equal amounts of composite HbF, HbA, HbS and HbC (Helena Laboratories, Beaumont, TX), was utilized as the reference for isotypes. The areas of new peaks, representing HbS adducts, were obtained, calculated as percentage fractions of total Hb area, and reported as levels of modified Hb.

CYP1A2 = target: T5, CYP1A2 (Homo sapiens, UniProt P05177); experiment: In vitro CYP inhibition, pooled human liver microsomes
T5 sequence (P05177 1-516): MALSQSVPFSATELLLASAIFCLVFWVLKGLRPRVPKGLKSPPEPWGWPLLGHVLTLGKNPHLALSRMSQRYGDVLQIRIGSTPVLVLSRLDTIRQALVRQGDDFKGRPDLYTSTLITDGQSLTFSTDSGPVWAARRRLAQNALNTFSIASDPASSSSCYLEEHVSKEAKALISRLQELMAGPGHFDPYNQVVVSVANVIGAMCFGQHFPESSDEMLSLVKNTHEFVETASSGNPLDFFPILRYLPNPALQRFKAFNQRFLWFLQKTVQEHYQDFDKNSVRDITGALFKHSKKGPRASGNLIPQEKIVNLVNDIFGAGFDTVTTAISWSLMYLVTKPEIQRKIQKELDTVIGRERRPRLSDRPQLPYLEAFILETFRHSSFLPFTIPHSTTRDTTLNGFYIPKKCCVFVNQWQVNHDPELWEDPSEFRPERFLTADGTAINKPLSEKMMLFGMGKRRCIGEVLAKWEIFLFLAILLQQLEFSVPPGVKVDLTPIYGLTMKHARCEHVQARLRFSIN
Description: as §1
as §2, with “The assays were performed in duplicate in 96-well plates at 37 °C for 10–60 min. The reaction was terminated with addition of methanol, followed by incubation at 4 °C for 10 min and centrifuged at 4 °C for 10 min.” left out

`O=Cc1c(O)cccc1OCc1cccc(CO)n1` [VZHE-039, 2-((6-(Hydroxymethyl)pyridin-2-yl)methoxy)-6-hydroxybenzaldehyde] was tested, and the IC50 (CYP3A4; substrate Midazolam) was > 100 µM, the IC50 (CYP3A4; substrate Testosterone) was 95 µM and the IC50 (CYP2D6) was > 100 µM. The IC50 (CYP2C19) was > 100 µM, the “Hb Modification” value (HbS; 0.5 mM) was 38% and 38.0 ± 7.2% and the “Hb Modification” value (HbS; 1 mM) was 72% and 72.6 ± 6.4%. The “Hb Modification” value (HbS; 2 mM) was 97.4 ± 6.7% and the IC50 (CYP1A2) was 4.7 µM.
